{
  "source": "patent US20200239587A1",
  "about": "“SENSITIZATION OF TUMORS TO THERAPIES THROUGH ENDOGLIN ANTAGONISM” (Cedars-Sinai Medical Center, priority 2016, published 2020)",
  "key": {"[1]": {"test_system": "MTCO1 of complex-IV and NDUFB8 of complex-I in 22Rv1", "assay": "Western blot of mitochondrial electron transport chain proteins", "assay_type": "cell-based, human", "conditions": "4Gy+TRC105 vs radiation alone, 72 hours", "procedure": "Lysate was collected 72 hours post irradiation for Western blot. FIG. 25A) Blots were probed for a cocktail of mitochondrial complex proteins. Protein levels of MTCO1 of complex-IV and NDUFB8 of complex-I were normalized to ponceau. […] Within each group, the first/left column depicts 0Gy+IgG, the second column depicts 0Gy+TRC105, the third column depicts 4Gy+IgG and the last/right column depicts 4Gy+TRC105. (**p<0.01, ***p<0.001)"}, "[2]": {"test_system": "survivin and full length PARP1 in CW22Rv1", "assay": "Survival proteins after radiation and TRC105", "assay_type": "cell-based, human", "conditions": "4Gy radiation and TRC105, 5 days"}, "22Rv1 cells": {"test_system": "22Rv1 cells", "assay": "Total cellular ATP", "assay_type": "cell-based, human", "conditions": "with or without 4 Gy, 0-168 hours", "procedure": "Cells were analyzed for mito-stress test by Seahorse-XF 168 hours following 4 Gy of radiation in the presence of IgG or TRC105. FIG. 26A) Basal respiration, non-mito respiration, proton leak, spare respiratory capacity, FIG. 26B) extracellular acidification rate (ECAR) and FIG. 26C) mitochondrial dependent ATP production were quantitated using Wave 2.3.0 analysis. Data are reported as mean+/−S.D. of a representative experiment (n=5) of 3 independent experiments. FIGS. 26A-26C, the first/left column depicts 0Gy+IgG, the second column depicts 0Gy+TRC105, the third column depicts 4Gy+IgG and the last/right column depicts 4Gy+TRC105. FIG. 26D) 22Rv1 cells treated with IgG, TRC105 or nicotinamide were irradiated (4 Gy). Total cellular ATP was measured 0, 24, 72, 120, and 168 hours post radiation. Within each group, the left column is IgG, middle column is TRC105 and the right column is nicotinamide. Data are reported as mean+/−S.D. of 3 independent experiments. (***p<0.001, ****p<0.0001)."}, "[3]": {"test_system": "androgen receptor variants and RNPC1", "assay": "Androgen receptor variants and RNPC1 expression", "assay_type": "cell-based"}, "p53 in 22Rv1 cells": {"test_system": "p53 in 22Rv1 cells", "assay": "p53 status after irradiation", "assay_type": "cell-based, human", "procedure": "In search for an alternate process mediating TRC105 radiation sensitization the inventors examined changes in cell cycle. The impact of radiation on the cell cycle is well described, as causing a G2 cell cycle arrest that undergoes cell cycle redistribution. […] As SIRT1 has previously been reported to regulate p53 stability by de-acetylating p53, the inventors investigated p53 status with TRC105 treatment. 22Rv1 cells were treated with either TRC105 or 200 μM nicotinamide, an inhibitor of SIRT1 activity, prior to irradiation (4Gy). Cells were then collected at 0, 1, and 7 days post radiation to elucidate early and late p53 response. […] While loss-of-function p53 mutations are rare in prostate cancer, 90% of pancreatic cancers have p53 mutations. We therefore used two p53 mutant pancreatic cancer cell lines: HPAF-II and MIAPACA-2 to identify if TRC105 unresponsiveness to radiation was due to p53 loss of functionality."}, "[4]": {"test_system": "SIRT1 expression in 22Rv1", "assay": "Radiation induced SIRT1 mRNA expression", "assay_type": "cell-based, human", "conditions": "4 Gy", "procedure": "(§1) FIG. 21A) C4-2B were irradiated (0, 2, 4, or 6 Gy) and SIRT1 expression measured 72 hours post irradiation. FIG. 21B) C4-2B cells were irradiated (4 Gy) and SIRT1 expression measured 0, 0.5, 4, 8, 24, 48, and 72 hours post-radiation. FIG. 21C) 22Rv1 were pre-treated with 1 μg/ml IgG or TRC105 24 hours prior to irradiation with 4 Gy and compared for relative SIRT1 mRNA expression 72 hours after to irradiation. SIRT1 mRNA was normalized to GAPDH and to 0 Gy control.\n(§2) Total RNA was extracted using the RNeasy kit (Qiagen). 1 μg RNA was used for cDNA synthesis using iSCRIPT cDNA synthesis kit (1708891, Bio-Rad). Quantitative RT-PCR was performed with 5 replicates using the Step One Real-Time PCR system (Applied Biosystems). Gene mRNA expression was normalized to GAPDH. Primer sequences can be found in the Table 1. For RNA-sequencing, Ion Proton AmpliSeq Transcriptome RNA Sequencing was performed achieving an average of 3M reads. We mapped an average of 88% of the reads to the human genome with Torrent Suite version 4.4.2."}, "[5]": {"test_system": "SIRT1 expression in C4-2B", "assay": "Radiation induced SIRT1 mRNA expression", "assay_type": "cell-based, human", "conditions": "irradiated", "procedure": "as §1, §2"}, "[6]": {"test_system": "NRF1, MTFA, and CPT1C in 22Rv1 cells", "assay": "mRNA expression of PGC1α target genes", "assay_type": "cell-based, human", "conditions": "radiation vs radiation plus TRC105; p<0.001", "procedure": "FIGS. 24A-24D depict that PGC1α and mitochondrial biogenesis are regulated by BMP/CD105. 22Rv1 cells were incubated with IgG or TRC105 with or without 4 Gy irradiation. All measurements were made 72 hours post radiation. FIG. 24A) Western blot for whole cell lysate, nuclear and cytoplasmic fractions were independently analyzed for PGC1α expression. Loading controls included β-actin (whole cell), lamin B (nuclear marker), and Rho A (cytoplasm marker). FIG. 24B) Immunofluorescent localization of PGC1α was visualized with DAPI nuclear counterstain. FIG. 24C) mRNA expression of PGC1α target genes, NRF1, MTFA, and CPT1C was measured. mRNA expression was normalized to GAPDH and untreated IgG 0 Gy. FIG. 24D) Mitochondrial DNA (mtDNA) was measured from total DNA extracts and normalized to nuclear DNA and compared to untreated IgG 0 Gy. Data are reported as means+/−S.D. of 3 independent experiments. (***p<0.001, ****p<0.0001).\nas §2, with “Gene mRNA expression was normalized to GAPDH. Primer sequences can be found in the Table 1.” left out"}, "22Rv1": {"test_system": "22Rv1", "assay": "γ-H2AX and p53BP foci after irradiation", "assay_type": "cell-based, human", "conditions": "for γ-H2AX and p53BP foci: TRC105 plus 4Gy vs radiation alone", "procedure": "22Rv1 were pre-treated with 1 μg/ml TRC105 24 hours prior to irradiation with 4 Gy. FIG. 22A) γ-H2AX or p53 bp were imunolocalized at 4, 24, and 48 hours post radiation. Foci per nuclei were quantified (n=100). FIG. 22B) Comet assay was performed 30 minutes and 24 hours following irradiation. The tail moment was quantified (n=50). FIG. 22C) Cell cycle analysis was performed on 22Rv1 at 0, 4, 8, and 24 hours post radiation in the presence of IgG or TRC105 (n=3) in 3 independent experiments. (***p<0.001, ****p<0.0001)."}},
  "note": "“Also recorded” adds a separate entry of the source.",
  "data": [
    {"substance": "TRC105: partially humanized monoclonal antibody that blocks BMP signaling; human-specific CD105 (endoglin) neutralizing antibody from Tracon Pharmaceuticals", "values": [
      {"measurement": "mitochondrial electron transport chain proteins MTCO1 and NDUFB8", "setting": "[1]", "result": "down-regulation of CIV-MTCO1 and CI-NDUF88; also recorded: significantly lower"},
      {"measurement": "survival proteins (survivin and full length PARP1)", "setting": "[2]", "result": "precipitous down regulation of survival proteins"},
      {"measurement": "cellular ATP stores", "setting": "22Rv1 cells", "result": "depleted regardless of radiation treatment"},
      {"measurement": "RNPC1 (RBM38) expression", "setting": "[3]; TRC105", "result": "down regulated"},
      {"measurement": "androgen receptor variants expression", "setting": "[3]; TRC105", "result": "down regulated; also recorded: down-regulated"},
      {"measurement": "Notch and IL-6 mediated ARv expression", "setting": "[3]; antagonizing endoglin", "result": "down regulate Notch and IL-6 mediated ARv expression"},
      {"measurement": "acetylated and total-p53", "setting": "p53 in 22Rv1 cells; by 7 days post radiation", "result": "markedly increased"},
      {"measurement": "anti-apoptotic protein Bc1-2", "setting": "p53 in 22Rv1 cells; prior to 4Gy irradiation", "result": "decrease in the anti-apoptotic protein Bc1-2"},
      {"measurement": "p21", "setting": "p53 in 22Rv1 cells; prior to 4Gy irradiation", "result": "increase in p21"},
      {"measurement": "acetylated p53", "setting": "p53 in 22Rv1 cells; treatment prior to 4Gy, nicotinamide 200 μM", "result": "increase in acetylated p53"},
      {"measurement": "radiation induced SIRT1 expression", "setting": "[4]", "result": "abrogated radiation induced SIRT1 expression"},
      {"measurement": "radiation induced SIRT1 expression", "setting": "[5]", "result": "abrogated radiation induced SIRT1 expression"},
      {"measurement": "mRNA expression of NRF1, MTFA, and CPT1C", "setting": "[6]", "result": "significantly increased with radiation compared to that in the presence of TRC105"},
      {"measurement": "number of cells with greater than 10 foci per nuclei", "setting": "22Rv1; TRC105 alone (radiation alone 59.6%)", "result": 4.3, "unit": "%"},
      {"measurement": "γ-H2AX and p53BP foci", "setting": "22Rv1; 4 and 24 hours post radiation", "result": "significant increase in γ-H2AX and p53BP foci"},
      {"measurement": "γ-H2AX and p53BP foci", "setting": "22Rv1; by 48 hours", "result": "no difference"},
      {"measurement": "double stranded DNA breaks", "setting": "22Rv1; TRC105 treatment alone vs untreated, within 24 hours, persisted past 72 hours", "result": "significant increase in double stranded DNA breaks"}
    ]}
  ]
}
